We go through eight compounds from PubChem BioAssay (NCI).

Test systems include MALME-3M melanoma; RPMI-8226 leukemia; SW-620 colon; OVCAR-4 ovarian; MDA-N; HCC-2998 colon; TK-10 renal; SNB-75 CNS; UACC-257 melanoma; SF-268 CNS; CCRF-CEM leukemia; SK-MEL-5 melanoma; SK-OV-3 ovarian; MOLT-4 leukemia; HOP-62 NSCLC; A549 NSCLC; OVCAR-3 ovarian; OVCAR-5 ovarian; HCT-116 colon; A498 renal.
What all share (experiment): NCI tumour cell line growth inhibition, 48 h

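Assay format: 96-well plates, 48-hour exposure. Definition used: TGI = concentration required for complete inhibition of growth.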

Turning to `COc1ccc(C2=C(OC(C)=O)c3cccn3-c3ccccc3S2)cc1`, the TGI with MALME-3M melanoma was above 10 µM; in the test on RPMI-8226 leukemia it was above 10 µM; in the test with SW-620 colon it was above 10 µM; in the test with OVCAR-4 ovarian, above 10 µM; in the test on MDA-N it was 1.44 µM; in the test with HCC-2998 colon it was above 10 µM. Besides, the TGI in the test on TK-10 renal, in the test with SNB-75 CNS, with UACC-257 melanoma, with SF-268 CNS, with CCRF-CEM leukemia and in the test on SK-MEL-5 melanoma was above 10 µM throughout. Also, the TGI in the test on SK-OV-3 ovarian, in the test on MOLT-4 leukemia, with HOP-62 NSCLC and in the test on A549 NSCLC was above 10 µM each time.
Take `COC(=O)[C@]1(c2cc3ccccc3n2S(=O)(=O)c2ccccc2)CC2CCC1NC2` (stereo partly specified): the TGI in the test on MALME-3M melanoma is 30.5 µM; in the test with RPMI-8226 leukemia, 23.1 µM; in the test on SW-620 colon, 31.3 µM; in the test with OVCAR-4 ovarian it was 48.3 µM; in the test on MDA-N, 27.8 µM; in the test with OVCAR-3 ovarian it was 33.1 µM. Besides, the TGI in the test with HCC-2998 colon was 21.6 µM; in the test with TK-10 renal, above 100 µM; in the test on SNB-75 CNS, 30.5 µM; with OVCAR-5 ovarian, 29.9 µM; in the test on HCT-116 colon it was 26.6 µM; in the test on UACC-257 melanoma it was 32 µM. Besides, the TGI is 40 µM with SF-268 CNS; 56.8 µM in the test on CCRF-CEM leukemia; 26.4 µM with SK-MEL-5 melanoma; 32.8 µM in the test with SK-OV-3 ovarian; 34 µM in the test on HOP-62 NSCLC; 25.2 µM with A549 NSCLC.
In the case of `CC(C)CCNC(=O)c1ccc(CNC(=O)/C=C/c2ccc(-c3ccccc3[N+](=O)[O-])o2)cc1`, the TGI is above 100 µM in the test with RPMI-8226 leukemia; above 100 µM in the test on SW-620 colon; 55.3 µM in the test on OVCAR-4 ovarian; above 100 µM with MDA-N; above 100 µM in the test on OVCAR-3 ovarian; above 100 µM in the test on HCC-2998 colon. The TGI in the test on SNB-75 CNS is above 100 µM; in the test on OVCAR-5 ovarian it was above 100 µM; in the test on HCT-116 colon, above 100 µM; in the test with UACC-257 melanoma, above 100 µM; in the test with SF-268 CNS, 63.1 µM; in the test with CCRF-CEM leukemia, above 100 µM. Also, the TGI was above 100 µM in the test on SK-MEL-5 melanoma; above 100 µM with SK-OV-3 ovarian; above 100 µM in the test with MOLT-4 leukemia; 60.8 µM with HOP-62 NSCLC; above 100 µM in the test on A549 NSCLC.
`CCNC1CC(C(C)(C)NCC)CC=C1C` (stereo unspecified): the TGI with SW-620 colon, in the test on OVCAR-4 ovarian, in the test on MDA-N, in the test with OVCAR-3 ovarian, in the test with HCC-2998 colon and in the test on TK-10 renal was above 100 µM in each case. In addition, the TGI in the test with SNB-75 CNS, in the test on OVCAR-5 ovarian, in the test on HCT-116 colon, in the test on UACC-257 melanoma, in the test with SF-268 CNS and in the test with CCRF-CEM leukemia was above 100 µM throughout. For the same compound, the TGI in the test with SK-MEL-5 melanoma, with SK-OV-3 ovarian, in the test on MOLT-4 leukemia, with HOP-62 NSCLC and in the test on A549 NSCLC was above 100 µM each time.
With `O=C(c1nsc(Cl)c1Cl)N1CCCCC1`, the TGI in the test on MALME-3M melanoma, with RPMI-8226 leukemia, in the test on SW-620 colon, in the test with OVCAR-4 ovarian, in the test with MDA-N and in the test with OVCAR-3 ovarian was above 100 µM in each case. The TGI in the test with HCC-2998 colon, in the test with TK-10 renal, in the test with SNB-75 CNS, in the test on OVCAR-5 ovarian, with HCT-116 colon and with UACC-257 melanoma was above 100 µM throughout. In addition, the TGI with SF-268 CNS, in the test with CCRF-CEM leukemia, in the test on SK-MEL-5 melanoma, with SK-OV-3 ovarian, in the test with MOLT-4 leukemia and in the test with HOP-62 NSCLC was above 100 µM each time. In addition, the TGI in the test with A549 NSCLC was above 100 µM.
For the compound `COc1ccc(OC)c(CCc2cc(OC)c(OC)cc2C)c1`, the TGI in the test on MALME-3M melanoma is above 100 µM; in the test with RPMI-8226 leukemia, 90.1 µM; with SW-620 colon it was above 100 µM; in the test on OVCAR-4 ovarian it was above 100 µM; in the test with OVCAR-3 ovarian it was above 100 µM; with HCC-2998 colon it was above 100 µM. In addition, the TGI in the test on TK-10 renal, with SNB-75 CNS, in the test on OVCAR-5 ovarian, in the test with UACC-257 melanoma, with SF-268 CNS and in the test with CCRF-CEM leukemia was above 100 µM each time. For the same compound, the TGI was above 100 µM in the test on SK-MEL-5 melanoma; above 100 µM in the test with A498 renal; 98.4 µM with SK-OV-3 ovarian; above 100 µM in the test with MOLT-4 leukemia; above 100 µM in the test with HOP-62 NSCLC; above 100 µM in the test on A549 NSCLC.
With `O=C(Nc1cc(C(F)(F)F)ccc1Cl)C(=O)C(C(=O)c1ccc2ccccc2c1)C1OC(=O)c2ccccc21` (stereo unspecified), the TGI in the test on MALME-3M melanoma is 27.4 µM; in the test with RPMI-8226 leukemia, above 54.5 µM; in the test with SW-620 colon, 37.8 µM; with OVCAR-4 ovarian, above 59.3 µM; in the test on OVCAR-3 ovarian it was above 50.7 µM; in the test on HCC-2998 colon, 22.7 µM. The TGI in the test with TK-10 renal is 40.3 µM; with SNB-75 CNS, 21.7 µM; in the test with OVCAR-5 ovarian, 24.5 µM; in the test on HCT-116 colon it was 30.2 µM; in the test with UACC-257 melanoma, 26 µM; with SF-268 CNS, 52.8 µM. The TGI was 33.7 µM in the test on CCRF-CEM leukemia; 22.5 µM in the test on SK-MEL-5 melanoma; 20.8 µM in the test with A498 renal; above 100 µM in the test with SK-OV-3 ovarian; 9.16 µM with MOLT-4 leukemia; 16.1 µM in the test on HOP-62 NSCLC. Also, in the test with A549 NSCLC, the TGI is above 100 µM.
With `CCCCCCCCCCCCCCCCCCNc1ccn(C2OC(CO)C(OP(=O)(O)OCC3CCC(n4ccc(N)nc4=O)O3)C2O)c(=O)n1` (stereo unspecified), the TGI with MALME-3M melanoma was 94.8 µM; in the test with SW-620 colon, above 100 µM; with OVCAR-4 ovarian it was above 100 µM; with MDA-N, above 100 µM; in the test with OVCAR-3 ovarian, above 100 µM; with TK-10 renal, above 100 µM. Further, the TGI was above 100 µM in the test on SNB-75 CNS; above 100 µM in the test with OVCAR-5 ovarian; above 100 µM in the test on HCT-116 colon; above 100 µM in the test with UACC-257 melanoma; above 100 µM with SF-268 CNS; 58.1 µM with CCRF-CEM leukemia. The TGI was above 100 µM in the test on SK-MEL-5 melanoma; above 100 µM in the test with SK-OV-3 ovarian; 10.2 µM with MOLT-4 leukemia; above 100 µM in the test on HOP-62 NSCLC; above 100 µM with A549 NSCLC.
